Test results from US9512140B2, “(Thieno[2,3-b][1,5]benzoxazepin-4-yl)piperazin-1-yl compounds as dual activity H1 inverse agonists/5-HT2A antagonists” (priority 2011, dated 2016).
Where a name gives a salt, the structure may show the parent alone.

How the values were obtained:
5-HT2B [1] = biological target: T1, 5-HT2B (Homo sapiens, UniProt P41595); experiment: 5-HT2B agonist functional activity; assay type: biochemical
From the text: (§1) Further, the compounds of the invention may be tested in binding assays and functional activity assays by well known methods for other physiologically important receptors such as, but not limited to, the hERO channel, other serotonin receptors (specifically 5-HT1B, 5-HT1D, receptors, lack of agonist activity at 5-HT2B receptors, 5-HT2C, 5-HT5, 5-HT6, and 5-HT7 receptors), dopaminergic receptors (specifically D1, D2, and D3), GABAA receptors, adrenergic receptors and monoamine transporters.

Dopamine D2 = Dopamine D2 (Homo sapiens, UniProt P14416); experiment: Dopamine D2 binding
Chain of Dopamine D2 (P14416 whole entry): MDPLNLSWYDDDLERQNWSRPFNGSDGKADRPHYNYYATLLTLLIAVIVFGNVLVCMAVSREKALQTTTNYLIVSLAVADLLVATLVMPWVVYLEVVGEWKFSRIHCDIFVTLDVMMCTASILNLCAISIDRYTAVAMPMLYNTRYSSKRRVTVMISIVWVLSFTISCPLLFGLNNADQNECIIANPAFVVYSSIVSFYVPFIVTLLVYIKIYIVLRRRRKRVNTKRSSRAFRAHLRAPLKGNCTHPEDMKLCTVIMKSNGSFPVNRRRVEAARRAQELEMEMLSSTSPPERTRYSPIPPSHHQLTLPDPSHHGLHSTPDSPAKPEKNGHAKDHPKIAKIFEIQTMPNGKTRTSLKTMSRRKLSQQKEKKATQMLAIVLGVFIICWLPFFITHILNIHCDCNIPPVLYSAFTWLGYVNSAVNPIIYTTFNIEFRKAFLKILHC
From the text: as §1

hERG Channel = hERG Channel (Homo sapiens, UniProt Q12809); experiment: hERG channel
From the text: as §1

5-HT7 = 5-HT7 (Homo sapiens, UniProt P34969); experiment: 5-HT7 binding
Chain of 5-HT7 (P34969 whole entry, species assumed): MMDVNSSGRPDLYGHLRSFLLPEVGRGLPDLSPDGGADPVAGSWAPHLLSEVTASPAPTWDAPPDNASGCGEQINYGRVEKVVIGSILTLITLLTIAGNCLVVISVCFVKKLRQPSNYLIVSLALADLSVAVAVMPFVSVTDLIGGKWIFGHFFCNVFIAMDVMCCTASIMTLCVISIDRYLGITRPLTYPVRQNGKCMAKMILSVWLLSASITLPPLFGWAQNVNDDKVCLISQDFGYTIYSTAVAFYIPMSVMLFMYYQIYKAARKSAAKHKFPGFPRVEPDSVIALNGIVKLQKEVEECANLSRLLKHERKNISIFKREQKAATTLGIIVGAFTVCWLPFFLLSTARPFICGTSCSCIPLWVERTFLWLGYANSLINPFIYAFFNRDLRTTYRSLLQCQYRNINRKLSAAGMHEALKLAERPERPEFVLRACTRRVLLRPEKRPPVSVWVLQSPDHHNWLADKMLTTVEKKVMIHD
From the text: as §1

Dopamine D3 = Dopamine D3 (Homo sapiens, UniProt P35462); experiment: Dopamine D3 binding
Chain of Dopamine D3 (P35462 whole entry): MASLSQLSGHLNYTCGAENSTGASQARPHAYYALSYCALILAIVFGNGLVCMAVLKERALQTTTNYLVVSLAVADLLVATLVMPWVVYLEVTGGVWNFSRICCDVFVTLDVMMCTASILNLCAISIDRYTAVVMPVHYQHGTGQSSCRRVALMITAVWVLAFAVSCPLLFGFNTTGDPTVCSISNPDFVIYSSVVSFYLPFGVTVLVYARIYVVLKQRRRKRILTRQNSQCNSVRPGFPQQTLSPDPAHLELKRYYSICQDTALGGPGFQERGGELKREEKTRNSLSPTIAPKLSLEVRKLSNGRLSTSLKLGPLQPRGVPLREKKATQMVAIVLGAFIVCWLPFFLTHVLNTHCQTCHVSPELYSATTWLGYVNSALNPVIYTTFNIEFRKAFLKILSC
From the text: as §1

Dopamine D1 = Dopamine D1 (Homo sapiens, UniProt P21728); experiment: Dopamine D1 binding
Chain of Dopamine D1 (P21728 whole entry): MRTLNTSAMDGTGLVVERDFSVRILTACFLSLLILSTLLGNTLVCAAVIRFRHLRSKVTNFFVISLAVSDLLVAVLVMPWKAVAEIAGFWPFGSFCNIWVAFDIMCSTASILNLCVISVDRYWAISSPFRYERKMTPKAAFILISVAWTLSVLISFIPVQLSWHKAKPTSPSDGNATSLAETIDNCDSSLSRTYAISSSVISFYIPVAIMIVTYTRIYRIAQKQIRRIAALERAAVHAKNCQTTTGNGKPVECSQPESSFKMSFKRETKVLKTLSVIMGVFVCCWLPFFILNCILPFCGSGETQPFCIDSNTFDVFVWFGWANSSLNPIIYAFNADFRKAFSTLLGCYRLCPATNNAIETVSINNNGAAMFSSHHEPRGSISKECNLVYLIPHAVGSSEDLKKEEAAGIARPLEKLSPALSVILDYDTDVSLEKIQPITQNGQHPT
From the text: as §1

5-HT2A receptor = biological target: T2, 5-HT2A receptor (Mus musculus, UniProt P35363); experiment: Inhibition of DOI induced headshake activity; assay type: in vivo; conditions: 10 mg/kg PO, mice, DOI 3 mg/kg, read-out: inhibition of DOI induced headshake response
T2 construct: from tissue; host or cells: living C57BL/6J mice
T2 sequence (P35363 whole entry): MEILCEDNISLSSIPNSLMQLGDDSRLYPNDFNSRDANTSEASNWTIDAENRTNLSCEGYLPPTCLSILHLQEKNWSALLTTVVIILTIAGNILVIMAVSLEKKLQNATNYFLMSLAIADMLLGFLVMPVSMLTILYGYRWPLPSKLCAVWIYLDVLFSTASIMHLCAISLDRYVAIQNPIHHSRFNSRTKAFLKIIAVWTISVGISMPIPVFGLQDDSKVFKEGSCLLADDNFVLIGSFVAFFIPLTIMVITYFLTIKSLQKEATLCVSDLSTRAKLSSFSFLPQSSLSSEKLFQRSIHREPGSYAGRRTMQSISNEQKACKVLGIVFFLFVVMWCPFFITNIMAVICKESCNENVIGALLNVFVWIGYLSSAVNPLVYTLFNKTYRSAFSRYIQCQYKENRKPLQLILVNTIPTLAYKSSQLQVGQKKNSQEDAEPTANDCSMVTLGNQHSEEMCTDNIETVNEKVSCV
Procedure: (see for example Bartoszyk G D, van Amsterdam C, Böttcher H, Seyfried C A. EMD 281014, a new selective serotonin 5-HT2A receptor antagonist. Eur J Pharmacol. 2003 473: 229-230.) Briefly, male C57BL/6J mice (20-25 g, Charles River) are housed in standard housing conditions (32 mice in a large IVC cage, 07.00 to 19.00 light phase, constant temperature (19-23° C.) and humidity (50%+/−10), ad lib food and water). Mice received either vehicle (0.25% Methyl cellulose), DOI (3 mg/kg in saline) or test compound at 10 mg/kg PO plus DOI (3 mg/kg in saline). Test compounds are individually evaluated in groups of four per experiment with n=4 for each compound, together with vehicle and DOI+vehicle (n=8). After a test compound pre-treatment time of 60 min. the mice receive either vehicle (saline) or 3 mg/kg DOI dosed subcutaneously, and are then placed into clear perspex observation chambers. […] The data is analyzed using an ANOVA and post-hoc Dunnet's Test. The compound of example 2 is tested essentially as described and is found to inhibit the DOI induced headshake response at 100% at 10 mg/kg.

[2] = biological target: T3, recombinant H1 receptor (human) (Homo sapiens, UniProt P35367); experiment: H1 competition binding assay ([3H]-Pyrilamine, SPA)
T3 construct: expressed in transfected cells; host or cells: HEK-293 (membranes)
T3 sequence (P35367 whole entry): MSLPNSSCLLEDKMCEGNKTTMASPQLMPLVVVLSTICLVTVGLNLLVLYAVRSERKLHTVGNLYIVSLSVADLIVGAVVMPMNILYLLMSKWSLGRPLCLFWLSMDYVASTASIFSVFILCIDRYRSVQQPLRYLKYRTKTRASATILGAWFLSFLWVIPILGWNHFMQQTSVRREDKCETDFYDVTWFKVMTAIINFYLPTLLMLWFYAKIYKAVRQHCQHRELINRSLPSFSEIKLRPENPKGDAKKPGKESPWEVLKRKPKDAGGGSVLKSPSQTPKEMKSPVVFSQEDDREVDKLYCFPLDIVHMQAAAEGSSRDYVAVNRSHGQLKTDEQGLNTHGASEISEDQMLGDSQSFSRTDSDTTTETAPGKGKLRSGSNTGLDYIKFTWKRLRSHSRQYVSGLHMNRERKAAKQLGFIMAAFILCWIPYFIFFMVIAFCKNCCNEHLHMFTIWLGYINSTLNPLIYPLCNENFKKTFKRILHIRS
Procedure: [^3H]-Pyrilamine binding experiments are carried out in SPA (scintillation proximity assay) 96-well format. Membranes used in this assay are prepared from HEK-293 cells stably expressing recombinant H1 receptor (human). The incubation is initiated by the addition of a mixture of WGA PVT SPA beads (1 mg/well, Perkin Elmer (MA, USA) RPNQ0001) and 3 μg membranes to assay buffer (67 mM Tris; pH 7.6) containing 3.5 nM [^3H]-Pyrilamine and varying concentrations of the test compound (10 point concentration response curves). Non-specific binding is determined in the presence of 10 μM Triprolidine. Samples are incubated for 4 hr. at room temperature (22° C.) and then read in a Microbeta Trilux.
Curves are evaluated using a 4-parameter logistic nonlinear equation to obtain the concentration of competitor causing 50% inhibition of radioligand binding (IC50). Equilibrium dissociation constants (Ki) are calculated according to the equation Ki=IC50/(1+L/Kd), where L equals the concentration of radioligand used in the experiment and Kd equals the equilibrium dissociation constant of the radioligand for the receptor, determined from standard saturation analysis or homologous competition experiments. Reported values for Ki, where n values are indicated, are shown as geometric mean±the standard error of the mean (SEM), with the number of replicate determinations indicated by n. […]

Adrenergic alpha1A = Adrenergic alpha1A (Homo sapiens, UniProt P35348); experiment: Adrenergic alpha1A binding
Chain of Adrenergic alpha1A (P35348 whole entry): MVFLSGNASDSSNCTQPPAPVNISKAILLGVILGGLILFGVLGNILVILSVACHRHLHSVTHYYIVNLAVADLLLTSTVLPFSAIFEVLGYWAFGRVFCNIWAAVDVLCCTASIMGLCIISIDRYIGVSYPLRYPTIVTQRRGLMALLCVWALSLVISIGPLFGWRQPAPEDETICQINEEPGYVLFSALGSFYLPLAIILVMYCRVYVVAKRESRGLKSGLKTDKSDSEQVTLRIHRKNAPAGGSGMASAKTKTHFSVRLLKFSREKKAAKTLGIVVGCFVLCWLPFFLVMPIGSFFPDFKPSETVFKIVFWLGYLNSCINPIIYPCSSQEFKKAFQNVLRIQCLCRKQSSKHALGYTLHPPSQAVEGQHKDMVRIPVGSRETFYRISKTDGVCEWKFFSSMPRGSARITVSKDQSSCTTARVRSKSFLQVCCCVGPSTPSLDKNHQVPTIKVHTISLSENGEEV
From the text: as §1

Dopamine Transporter = Dopamine Transporter (Homo sapiens, UniProt Q01959); experiment: Dopamine transporter binding
Chain of Dopamine Transporter (Q01959 whole entry): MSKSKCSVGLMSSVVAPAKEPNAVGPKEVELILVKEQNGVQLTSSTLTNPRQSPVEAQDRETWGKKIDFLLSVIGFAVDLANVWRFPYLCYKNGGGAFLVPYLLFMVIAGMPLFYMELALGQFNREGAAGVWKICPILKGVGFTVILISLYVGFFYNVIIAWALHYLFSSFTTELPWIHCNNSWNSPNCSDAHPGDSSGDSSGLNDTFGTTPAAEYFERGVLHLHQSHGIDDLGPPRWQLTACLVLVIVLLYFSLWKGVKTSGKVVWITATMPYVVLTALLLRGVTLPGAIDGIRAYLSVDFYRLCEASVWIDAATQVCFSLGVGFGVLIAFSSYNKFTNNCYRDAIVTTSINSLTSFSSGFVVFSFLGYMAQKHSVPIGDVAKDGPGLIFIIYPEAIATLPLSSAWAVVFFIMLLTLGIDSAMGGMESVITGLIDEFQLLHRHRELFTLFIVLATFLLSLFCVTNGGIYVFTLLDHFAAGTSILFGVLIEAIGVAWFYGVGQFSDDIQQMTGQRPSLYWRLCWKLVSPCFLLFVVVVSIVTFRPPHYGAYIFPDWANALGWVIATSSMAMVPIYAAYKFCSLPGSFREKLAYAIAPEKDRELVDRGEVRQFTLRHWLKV
From the text: as §1

Plasma clearance, rat = assay type: in vivo; conditions: male, Sprague Dawley, 1 mg/kg, intravenous, 1 mL/kg of 1.0 mg/mL
Procedure: Male Sprague Dawley rats (body weight range 250-320 g) with indwelling femoral arterial cannulae are obtained from Charles River, Wilmington, Mass. 01887, USA. Test compound is administered intravenously in solution (1 mL/kg) in 20% Captisol® in 22.5 mM phosphate buffer, pH 2, at a final drug concentration of 1.0 mg/mL (free base equivalents). Blood samples are obtained using the indwelling cannula over 24 hr. Samples of plasma are obtained by centrifugation and stored frozen (−20° C.), or on dry ice, prior to analysis. Frozen plasma samples are thawed to room temperature for bioanalysis of concentrations of test compound. A related internal standard compound in acetonitrile/methanol (1:1, v/v) is added to all samples of plasma (1:1, v/v). The samples are centrifuged to remove precipitated protein prior to analysis. The supernatants are analysed by injection and rapid gradient elution on a Javelin Betasil C18 column (20×2.1 mm cartridge, Mobile phase A: Water/1 M NH4HCO3, 2000:10 v/v, Mobile Phase B: MeOH/1 M NH4HCO3, 2000:10 v/v). The eluted analytes are detected by LC-MS-MS analysis using a Sciex API 4000 triple quadrupole mass spectrometer. Concentrations of compound are determined from standards prepared and analysed under identical conditions. Clearance is calculated using non-compartmental analysis in Watson 7.4, Thermo Fisher Scientific, Inc.

Adrenergic alpha2C = Adrenergic alpha2C (Homo sapiens, UniProt P18825); experiment: Adrenergic alpha2C binding
Chain of Adrenergic alpha2C (P18825 whole entry): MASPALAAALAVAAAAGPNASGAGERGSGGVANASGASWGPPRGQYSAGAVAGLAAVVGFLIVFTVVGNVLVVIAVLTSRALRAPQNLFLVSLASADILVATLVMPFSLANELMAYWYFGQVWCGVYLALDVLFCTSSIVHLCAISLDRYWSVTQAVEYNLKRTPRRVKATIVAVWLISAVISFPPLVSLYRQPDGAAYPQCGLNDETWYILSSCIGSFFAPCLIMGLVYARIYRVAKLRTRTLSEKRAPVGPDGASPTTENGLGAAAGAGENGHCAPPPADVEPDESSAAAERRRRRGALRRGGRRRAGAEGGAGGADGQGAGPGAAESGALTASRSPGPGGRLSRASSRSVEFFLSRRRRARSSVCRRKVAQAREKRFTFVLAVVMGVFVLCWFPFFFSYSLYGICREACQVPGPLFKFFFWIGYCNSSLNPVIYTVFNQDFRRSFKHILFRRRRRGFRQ
From the text: as §1

5-HT2B [3] = biological target: T1, 5-HT2B; experiment: 5-HT2B antagonist functional activity; assay type: biochemical
From the text: as §1

5-HT5 = 5-HT5 (Homo sapiens, UniProt P47898); experiment: 5-HT5 binding
From the text: as §1

T1 sequence (P41595 whole entry, species assumed): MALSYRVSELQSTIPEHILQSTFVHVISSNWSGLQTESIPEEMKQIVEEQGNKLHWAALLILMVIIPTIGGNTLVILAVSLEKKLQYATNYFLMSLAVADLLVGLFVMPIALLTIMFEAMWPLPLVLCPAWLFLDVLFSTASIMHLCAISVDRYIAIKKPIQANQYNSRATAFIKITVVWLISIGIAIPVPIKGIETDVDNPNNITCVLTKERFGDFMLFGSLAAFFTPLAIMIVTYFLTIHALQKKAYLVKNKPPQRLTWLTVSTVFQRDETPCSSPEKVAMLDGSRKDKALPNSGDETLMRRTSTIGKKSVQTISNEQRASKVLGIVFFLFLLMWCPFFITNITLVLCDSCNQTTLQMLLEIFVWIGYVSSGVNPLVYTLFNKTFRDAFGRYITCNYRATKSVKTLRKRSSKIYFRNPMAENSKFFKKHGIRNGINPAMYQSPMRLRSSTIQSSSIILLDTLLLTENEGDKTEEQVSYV

Cc1ccc2c(c1)Oc1sc(C)cc1C(N1CCN(CC(C)(C)C(=O)O)CC1)=N2 [Example 2, 3-[4-(2,8-Dimethylthieno[2,3-b][1,5]benzoxazepin-4-yl)piperazin-1-yl]-2,2-dimethyl-propanoic acid dihydrochloride]
EC50 (5-HT2B [1]): > 10 µM
Ki (Dopamine D2): 2480 nM
hERG Channel (hERG Channel): >100 µM
Ki (5-HT7): > 2060 nM
Ki (Dopamine D3): > 5.66 µM
Ki (Dopamine D1): 2350 nM
inhibition at 10 mg/kg (5-HT2A receptor): 100%
Ki [2]: 131 nM
Ki (Adrenergic alpha1A): > 10.5 µM
Ki (Dopamine Transporter): > 877 nM
clearance (Plasma clearance, rat): 27 mL/min/kg
Ki (Adrenergic alpha2C): > 5.55 µM
Kb (5-HT2B [3]): 45 nM
Ki (5-HT5): > 8.83 µM
